Assay results from patent US4105785A, “Anti-depressive 2-methyl-4-[(3'-dimethylamino)propylidine]-9,10-dihydrobenzo [4,5]cyclohepta[1,2b]furan compounds” (priority 1976, dated 1978).

Tests used:
spontaneous motility = assay: Spontaneous motility in the mouse; type: in vivo; conditions: 1 hour after administration, 10 minutes
Protocol: (6) Spontaneous motility in the mouse One hour after the administration of the product to be studied, the animals are placed by groups of two in a circular corridor swept by beams of infrared light making it possible to count their movements from one place to another. The number of movements from one place to another is counted for 10 minutes and compared with the score obtained by a control group.

[1] = tested on: symptoms of trembling induced by oxotremorine; assay: Antioxotremoric action in the mouse; type: in vivo; conditions: 100 mg/kg PO, oxotremorine 2 mg/kg IP
[2] = tested on: stereotypies induced by amphetamine; assay: Potentialization of stereotypies induced by amphetamine in the rat; type: in vivo; conditions: D-amphetamine 4 mg/kg IP
Protocol: (4) Potentialization of stereotypies induced by amphetamine in the rat.
The administration of D-amphetamine to the rat (4 mg/kg IP) results in stereotyped behaviour which can be potentialized or antogonized by various products.
The values given in table I show the percentage of potentialization. [Lapin I. P. and Schelkunov E. L. (1963) Second International Pharmacological Meeting 1, 205 Pergamon Press].

[3] = tested on: catalepsy induced by prochlorperazine; assay: antagonism to catalepsy induced by prochlorperazine in the rat; type: in vivo
Description: (3) antagonism to catalepsy induced by prochlorperazine in the rat. Injection of prochlorperazine in the rat induces a cataleptic state which is more or less inhibited by antidepressants. The values given in table I show percentages of inhibition. [Boissier J. R. and Simon P., Therapie (1963), 18, 1257-77]

[4] = tested on: reserpine-induced hypothermia; assay: Antagonism to reserpine-induced hypothermia; type: in vivo; conditions: mouse; for HYPOTHERMIA (Reserpine), maximal rise in temperature: reserpine 1 mg/kg IV
Protocol: (2) Antagonism to reserpine-induced hypothermia Administration of reserpine to the mouse (1 mg/kg IV) results in hypothermia which may be antagonized by certain anti-depressants. The values given in table I correspond, for the doses given, to the maximal rise in temperature. [Boissier et al., Therapie 1966, XXI, 109-117]

[5] = tested on: heat stimulus (hot plate); assay: Analgesic activity, hot plate method; type: in vivo; conditions: mouse; for ED50: PO, 50% of animals exposed to heat stimulus longer than 5 seconds, read-out: ANALGESIA ED 50
Protocol: (7) Analgesic activity This was assessed on the mouse by the hot plate method. […] [Eddy N. B. and Leimbach D. J., Pharmacol. Exp. Ther., 107, 385-393 (1953)]

[6] = acute toxicity by the oral way in the mouse; conditions: in vivo; for LD50: PO; for mortality: 600 mg/kg PO, read-out: acute toxicity, deaths
Protocol: (1) acute toxicity by the oral way in the mouse
This was evaluated in the mouse by the method of Behrens and Karber [Arch. Exp. Path. Pharm. 177, 379 (1935)]

Row | SMILES | SPONTANEOUS MOTILITY, percentage of decrease in number of movements (spontaneous motility; 80 mg/kg PO) | ANTI-OXOTREMORIC ACTION, percentage of inhibition of trembling symptoms [1] | STEREOTYPIES (Amphetamine), percentage of potentialization ([2]; 20 mg/kg PO) | CATALEPSY (Prochlorperazine), percentage of inhibition ([3]; 20 mg/kg IP) | HYPOTHERMIA (Reserpine), maximal rise in temperature ([4]; 50 mg/kg PO) | ED50 [5] | LD50 [6] | SPONTANEOUS MOTILITY, percentage of decrease in number of movements (spontaneous motility; 100 mg/kg PO) | STEREOTYPIES (Amphetamine), percentage of potentialization ([2]; 5 mg/kg IP) | HYPOTHERMIA (Reserpine), maximal rise in temperature ([4]; 12.5 mg/kg PO) | mortality [6] | HYPOTHERMIA (Reserpine), maximal rise in temperature ([4]; 25 mg/kg PO) | CATALEPSY (Prochlorperazine), percentage of inhibition ([3]; 40 mg/kg IP) | action on reserpine-induced hypothermy (in words) [4] | ANALGESIA (result in words) [5]
1 | CN(C)CCC=C1c2ccccc2CCc2ccccc21 [AMITRIPTYLINE, reference compound] | 80% | -100% | +65% | -33,3% | +2.5 °C | 16 mg/kg | 250 mg/kg |  |  |  |  |  |  |  | 
2 | Cc1ccc2c(c1)CCc1oc(C)cc1C2=CCCN(C)C [compound no. 1, dimethyl-2,7 [(dimethylamino-3')propylidene]-4 dihydro-9,10 benzo-[4,5] cyclohepta [1,2-b] furan] |  | -35% |  | -26.1% |  | 48 mg/kg |  | 95.3% | +105% | +1 °C | 10% |  |  |  | 
3 | Cc1ccc2c(c1)C(=CCCN(C)C)c1cc(C)oc1CC2 [compound no. 2, dimethyl-2,6 [(dimethylamino-3')]-propylidene-4 dihydro-9,10 benzo [4,5] cyclohepta [1,2-b] furan] |  | -30% |  | -44.4% |  | 47 mg/kg |  | 84.4% | +141% |  | 10% | +0.6 °C |  |  | 
4 | Cc1cc2c(o1)CCc1ccccc1C2=CCCN(C)C [compound no. 3, methyl-2 [(dimethylamino-3')-propylidene]-4 dihydro-9,10 benzo-[4,5] cyclohepta [1,2-b] furan] |  | -75% |  |  | +3 °C |  | 300 mg/kg | 84% | +9,2% |  |  |  | -33.3% | significant action | non specific
